According to PubChem BioAssay AID1963874 (Molecular Pharmacology Branch, DTP, NCI, 2024):

Test system: 253994-281-T-J1-PDC KRAS-mutant spheroids with HUVEC/MSC, viability
Assay: Anticancer human tumor 253994-281-T-J1-PDC patient-derived colorectal carcinoma cell line growth inhibition [KRAS2]
Conditions: for IC50: curve of first compound; for viability, T/C: stronger effect = lower value
In short: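 Combination screen of spheroid viability in tumor-cell co-cultures with endothelial (HUVEC) and mesenchymal stem cell stroma. Each agent was tested in half-log dilutions, topping at clinical Cmax or at 10 microM without a known Cmax.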

[1] = second compound 0.1 µM, first compound 0.0316 µM
[2] = second compound 0.1 µM, first compound 0.1 µM
[3] = second compound 0.316 µM, first compound 0.0316 µM
[4] = second compound 0.316 µM, first compound 0.1 µM
[5] = second compound 1 µM, first compound 0.0316 µM
[6] = second compound 1 µM, first compound 0.1 µM
[7] = second compound 3.16 µM, first compound 0.0316 µM
[8] = second compound 3.16 µM, first compound 0.1 µM
[9] = second compound 10 µM, first compound 0.0316 µM
[10] = second compound 10 µM, first compound 0.1 µM
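Also: spheroids exposed to agents for seven days before readout.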
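For viability, T/C in this document: percent of DMSO vehicle control viability.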

**Q.** For `CC(C)n1nc(-c2ccc3oc(N)nc3c2)c2c(N)ncnc21` + COc1cc2nc(C)nc(NC(C)c3cc(N)cc(C(F)(F)F)c3)c2cc1OC1CCOC1, which IC50 (second compound 0.1 µM) is on record?
**A.** Its IC50 is over 100 nM.

**Q.** What about the IC50 (second compound 0.316 µM) of the same molecule?
**A.** The IC50 was over 100 nM.

**Q.** What about the IC50 (second compound 1 µM) of the same molecule?
**A.** Its IC50 is over 100 nM.

**Q.** And the IC50 (second compound 3.16 µM)?
**A.** The IC50 was over 100 nM.

**Q.** And the IC50 (second compound 10 µM)?
**A.** Its IC50 is 84.9 nM.

**Q.** What about the viability, T/C (second compound 0.1 µM, first compound 0.000316 µM) of the same molecule?
**A.** Its viability, T/C is 82.7%.

**Q.** What about the viability, T/C (second compound 0.1 µM, first compound 0.001 µM) of the same molecule?
**A.** The viability, T/C was 102%.

**Q.** What about the viability, T/C (second compound 0.1 µM, first compound 0.00316 µM) of the same molecule?
**A.** Its viability, T/C is 74.1%.

**Q.** What about the viability, T/C (second compound 0.1 µM, first compound 0.01 µM) of the same molecule?
**A.** The viability, T/C was 87%.

**Q.** What about the viability, T/C [1] of the same molecule?
**A.** Its viability, T/C is 82.7%.

**Q.** And the viability, T/C [2]?
**A.** Its viability, T/C is 56.8%.

**Q.** And the viability, T/C (second compound 0.316 µM, first compound 0.000316 µM)?
**A.** The viability, T/C was 86.4%.

**Q.** What about the viability, T/C (second compound 0.316 µM, first compound 0.001 µM) of the same molecule?
**A.** Its viability, T/C is 83.6%.

**Q.** What about the viability, T/C (second compound 0.316 µM, first compound 0.00316 µM) of the same molecule?
**A.** Its viability, T/C is 88%.

**Q.** And the viability, T/C (second compound 0.316 µM, first compound 0.01 µM)?
**A.** The viability, T/C was 79.3%.

**Q.** And the viability, T/C [3]?
**A.** Its viability, T/C is 74.4%.

**Q.** What about the viability, T/C [4] of the same molecule?
**A.** The viability, T/C was 56.2%.

**Q.** And the viability, T/C (second compound 1 µM, first compound 0.000316 µM)?
**A.** Its viability, T/C is 90%.

**Q.** What about the viability, T/C (second compound 1 µM, first compound 0.001 µM) of the same molecule?
**A.** The viability, T/C was 97.6%.

**Q.** What about the viability, T/C (second compound 1 µM, first compound 0.00316 µM) of the same molecule?
**A.** The viability, T/C was 82%.

**Q.** What about the viability, T/C (second compound 1 µM, first compound 0.01 µM) of the same molecule?
**A.** Its viability, T/C is 82.7%.

**Q.** What about the viability, T/C [5] of the same molecule?
**A.** The viability, T/C was 76.5%.

**Q.** What about the viability, T/C [6] of the same molecule?
**A.** Its viability, T/C is 51%.

**Q.** What about the viability, T/C (second compound 3.16 µM, first compound 0.000316 µM) of the same molecule?
**A.** The viability, T/C was 81.9%.

**Q.** And the viability, T/C (second compound 3.16 µM, first compound 0.001 µM)?
**A.** Its viability, T/C is 94.5%.

**Q.** What about the viability, T/C (second compound 3.16 µM, first compound 0.00316 µM) of the same molecule?
**A.** Its viability, T/C is 85.5%.

**Q.** And the viability, T/C (second compound 3.16 µM, first compound 0.01 µM)?
**A.** The viability, T/C was 82%.

**Q.** And the viability, T/C [7]?
**A.** Its viability, T/C is 72.8%.

**Q.** And the viability, T/C [8]?
**A.** The viability, T/C was 57.2%.

**Q.** And the viability, T/C (second compound 10 µM, first compound 0.000316 µM)?
**A.** Its viability, T/C is 78.5%.

**Q.** And the viability, T/C (second compound 10 µM, first compound 0.001 µM)?
**A.** Its viability, T/C is 79.5%.

**Q.** What about the viability, T/C (second compound 10 µM, first compound 0.00316 µM) of the same molecule?
**A.** Its viability, T/C is 77.2%.

**Q.** And the viability, T/C (second compound 10 µM, first compound 0.01 µM)?
**A.** Its viability, T/C is 79.5%.

**Q.** And the viability, T/C [9]?
**A.** The viability, T/C was 64.1%.

**Q.** What about the viability, T/C [10] of the same molecule?
**A.** The viability, T/C was 47.6%.

**Q.** Which results are given for `CC1(C)CCC(CN2CCN(c3ccc(C(=O)NS(=O)(=O)c4ccc(NCC5CCOCC5)c([N+](=O)[O-])c4)c(Oc4cnc5[nH]ccc5c4)c3)CC2)=C(c2ccc(Cl)cc2)C1` + COc1cc2nc(C)nc(NC(C)c3cc(N)cc(C(F)(F)F)c3)c2cc1OC1CCOC1?
**A.** IC50 (second compound 0.1 µM): > 10000 nM; IC50 (second compound 0.316 µM): > 10000 nM; IC50 (second compound 1 µM): 8290 nM; IC50 (second compound 3.16 µM): 5510 nM; IC50 (second compound 10 µM): 2590 nM; viability, T/C [1]: 89%; viability, T/C [2]: 85.8%; viability, T/C (second compound 0.1 µM, first compound 0.316 µM): 85.6%; viability, T/C (second compound 0.1 µM, first compound 1 µM): 89.1%; viability, T/C (second compound 0.1 µM, first compound 3.16 µM): 67.2%; viability, T/C (second compound 0.1 µM, first compound 10 µM): 64.1%; viability, T/C [3]: 84.1%; viability, T/C [4]: 80%; viability, T/C (second compound 0.316 µM, first compound 0.316 µM): 79.8%; viability, T/C (second compound 0.316 µM, first compound 1 µM): 83.5%; viability, T/C (second compound 0.316 µM, first compound 3.16 µM): 75.2%; viability, T/C (second compound 0.316 µM, first compound 10 µM): 53.3%; viability, T/C [5]: 76.8%; viability, T/C [6]: 85.9%; viability, T/C (second compound 1 µM, first compound 0.316 µM): 82.5%; viability, T/C (second compound 1 µM, first compound 1 µM): 78%; viability, T/C (second compound 1 µM, first compound 3.16 µM): 64.7%; viability, T/C (second compound 1 µM, first compound 10 µM): 47.1%; viability, T/C [7]: 91.6%; viability, T/C [8]: 85.2%; viability, T/C (second compound 3.16 µM, first compound 0.316 µM): 81.7%; viability, T/C (second compound 3.16 µM, first compound 1 µM): 82.2%; viability, T/C (second compound 3.16 µM, first compound 3.16 µM): 55.2%; viability, T/C (second compound 3.16 µM, first compound 10 µM): 44.3%; viability, T/C [9]: 71.1%; viability, T/C [10]: 72%; viability, T/C (second compound 10 µM, first compound 0.316 µM): 74.4%; viability, T/C (second compound 10 µM, first compound 1 µM): 61.6%; viability, T/C (second compound 10 µM, first compound 3.16 µM): 47.8%; viability, T/C (second compound 10 µM, first compound 10 µM): 24.4%
